Patent US5089479A, “Adhesion of Mycoplasma pneumoniae and Mycoplasma hominus to sulfatide” (priority 1988, dated 1992)
Entries after “also recorded” stand apart in the source; their conditions may differ. Structures can show the parent of a compound that is named as a salt.

Legend:
M. pneumoniae [1] = experiment: Mycoplasma overlay assay: binding of [3H]-M. pneumoniae to glycolipids on thin layer chromatograms; set-up: species or system Mycoplasma pneumoniae strain M129; details: for binding of M. pneumoniae to glycolipid (in words): thin layer chromatogram overlay; for Binding (ability to bind M. pneumoniae): Table I, class by amount of lipid bound
Protocol: (§1) Virulent M. pneumoniae strain M129, passage 5-15, were grown and metabolically labelled with [^3 H]palmitic acid, 12-17 Ci/mole, as described by Chandler et al. in Infect. Immun. 37: 942, 1982. The organisms were passed four times through a 26 gauge needle and suspended to approximately 10^7 cpm/ml of degassed RPMI 1640 medium containing 1% bovine serum albumin and 25 mM HEPES, pH 7.3.
M. pneumoniae were bound to glycolipids separated on thin-layer chromatograms as described in detail for other bacteria by Krivan et al., Proc. Natl. Acad. Sci. 85: 6157-6161, 1988, and Krivan et al., Arch. Biochem. Biophys. 260:493-496, 1988. Briefly, glycolipids were separated by thin-layer chromatography on aluminum-backed silica gel high-performance plates developed with chlooform:methanol:0.25% CaCl2 in water (60:35:8). After chromatography, the plates were coated with 0.1% polyisobutylmethacrylate, soaked in 0.05 M Tris-HCl, pH 7.6, containing […] sodium chloride, 5 mM CaCl2, 0.2 mM phenylmethane-sulfonyl fluoride, and 1% bovine serum albumin (TBS-BSA) and incubated for three hours at 25° C. with 60 μl/cm^2 of [^3 H]-labelled M. pneumoniae, approximately 10^7 cpm/ml of RPMI-BSA. The plates were gently washed five times in 0.01 M sodium phosphate, pH 7.2, containing 0.15 M sodium chloride (PBS) to remove unbound organisms, dried, and exposed for 24 hours to Ultrofilm ^3 H (2208-190) high speed film.
To obtain the results shown in FIG. 1, glycolipids were chromatographed on aluminum-backed silica gel HPTLC plates developed in chloroform/methanol/0.25% CaCl2 in water, 60:35:8. The plates were coated with plastic, soaked in Tris-BSA, and incubated for three hours at 25° C. with [^3 H]-palmitate-labelled M. pneumoniae suspended in RPMI 1640 containing 1% BSA and 25 mM HEPES, pH 7.3, as described above (Panel A), or sprayed with orcinol reagent to identify glycolipids (Panel B). Lane a, acidic glycolipid standards sulfatide (0.5 μg), GM3 (2 μg), GM2 (2 μg), GD1a (2 μg), GD1b (2 μg), GT1b (2 μg); lane b, neutral standards galactosyl ceramide (4 μg), lactosylceramide (4 μg), globotriaosylceramide (2 μg), c2(0.5 μg). and c3 (o.1 μg); lane d, seminolipid (2 μg); lane e, cholesterol 3 -sulfate (2 μg); lane f, human trachea acidic glycolipids from 100 mg wet weight […]; lane h, α2-3sialylparagloboside (2 μg); lane 1, I-active monosialylganglioside from bovine erythrocytes (2 μg).

M. pneumoniae [2] = experiment: Solid-phase binding of [3H]-M. pneumoniae to purified glycolipids immobilized in microtiter plates; set-up: species or system Mycoplasma pneumoniae strain M129; details: microtiter plate; up to 10 μg per well
Protocol: as §1
(§2) The binding of M. pneumoniae to purified glycolipids immobilized in microtiter plates was measured as described by Krivan et al. in Proc. Natl. Acad. Sci., op. cit. Purified glycolipids were serially diluted in 25 μl of methanol containing 0.1 μg each of the auxiliary lipids cholesterol and phosphatidylcholine. After the solutions were dried by evaporation, the wells were filled with TBS-BSA, emptied after one hour, rinsed with RPMI-BSA, and incubated with 25 μl of [^3 H]-M. pneumoniae, approximately 10^7 cpm/ml RPMI-BSA. After incubation for two hours at 37° C., unless otherwise stated, the wells were washed five times with saline and bound M. pneumoniae was quantified by scintillation counting in Aquasol. For inhibition studies, various polysaccharides were serially diluted in […] of [^3 H]-M. pneumoniae.
To obtain the results shown in FIG. 2, lipids in […] each of the auxiliary lipids cholesterol and phosphatidylcholine were evaporated in flat bottom wells of polyvinylchloride microtiter plates. The wells were blocked with 1% albumin for one hour, washed twice with RPMI-BSA, and incubated at 25° C. with 25 μl of [^3 H]-M. pneumoniae, approximately […]. After two hours, the wells were washed five times with saline, cut from the plate, and bound radioactivity was quantified in a scintillation counter. In control experiments, organisms were incubated with auxiliary lipids only to correct for nonspecific binding, typically <1% of the total radioactivity added. M. pneumoniae binding was determined in RPMI-BSA for sulfatide ( .circle. ), lactosylceramide, paragloboside, and cholesterol sulfate, ceramide trihexoside, globoside, GM1, GM2, or GM3 ( .largecircle.).
Binding of [^3 H]-M. pneumoniae was determined in RPMI-BSA for two hours at 4° C., 25° C. ( .circle. ), 37° C., and at 37° C. in BSA without RPMI (Δ).

M. pneumoniae [3] = experiment: M. pneumoniae adhesion to immobilized glycoproteins adsorbed on plastic; assay type: binding, Mycoplasma pneumoniae strain M129; details: for M. pneumoniae adhesion to immobilized glycoprotein (in words): adsorbed on plastic; for amount of glycoprotein coated that promotes adhesion: coated wells; for Relative binding activity: relative to fetuin = 1.0, from amount for half maximal binding, mean of 2 or 3 experiments
Protocol: Glycoproteins dissolved in 0.01 M sodium phosphate buffer, pH 7.4, containing 150 mM NaCl, 1 mM CaCl2, and 0.01% NaN3 were adsorbed onto plastic polyvinylchloride […] microtiter plates by incubation for 16 hours at 4° C. The unbound proteins were removed, and the wells were filled with tris-BSA and incubated for 30 minutes at room temperature. The wells were rinsed with RPMI1640 containing 25 mM HEPES, pH 7.3, and 1% bovine serum albumin. M. pneumoniae strain M129 labelled with [^3 H]-palmitate were dispersed in RPMI-BSA by passing four times through a 26 gauge needle, and 50 μl of the suspension was applied to the wells. After incubation for 60 minutes at 37° C., the wells were washed five times with saline and the labelled M. pneumoniae bound to the proteins were quantified by scintillation counting in Aquasol. […]

[4] = test system: M. pneumoniae binding to sulfatide; experiment: Inhibition of M. pneumoniae binding to sulfatide adsorbed on plastic; set-up: species or system Mycoplasma pneumoniae strain M129; details: for inhibition of binding to sulfatide at 100 μg/ml (in words): sulfatide in microtiter plates
Protocol: as §1, §2
To obtain the results shown in FIG. 4, polysaccharides were serially diluted in 25 μl of RPMI-BSA in microtiter wells previously coated with 1 μg of purified sulfatide. Binding was determined after incubation of two hours at 37° C. with 25 μl of [^3 H]-M. pneumoniae with the indicated concentration of dextran ( .circle. ) or dextran sulfate.

| Compound | binding of M. pneumoniae to glycolipid (in words) (M. pneumoniae [1]) | Binding (ability to bind M. pneumoniae) (M. pneumoniae [1]) | further results |
| --- | --- | --- | --- |
| CC(C)CCC[C@@H](C)[C@H]1CC[C@H]2[C@@H]3CC=C4C[C@@H](OS(=O)(=O)O)CC[C@]4(C)[C@H]3CC[C@]12C [cholesterol sulfate, cholesterol 3 -sulfate] | does not bind |  | binding of M. pneumoniae to immobilized lipid (in words) (M. pneumoniae [2]): no binding was detected |
| Alpha2-3-sialylparagloboside (NeuGc) |  | - (no binding to 4 μg of lipid) |  |
| Asialo GM1 |  | - (no binding to 4 μg of lipid) |  |
| Bovine Fetuin: major protein in fetal calf serum |  |  | M. pneumoniae adhesion to immobilized glycoprotein (in words) (M. pneumoniae [3]): promote dose-dependent and saturable adhesion; amount of glycoprotein coated that promotes adhesion (M. pneumoniae [3]): less than 10 ng; Relative binding activity (M. pneumoniae [3]): 1.0 |
| Bovine serum Albumin: protein |  |  | Relative binding activity (M. pneumoniae [3]): < 0.01 |
| GD1^b | No binding was detected | - (no binding to 4 μg of lipid) |  |
| GD1a | No binding was detected | - (no binding to 4 μg of lipid) |  |
| GT1b | No binding was detected | - (no binding to 4 μg of lipid) |  |
| Galactosyl ceramide-I6-sulfate [Sulfatide Gal(6SO4)β11Cer] |  | +++ (positive binding to less than 0.5 μg) | binding of M. pneumoniae to glycolipid (in words) (M. pneumoniae [1]; listed as 6-sulfate isomer): does not discriminate between galactosyl ceramide I^3 -sulfate and its unnatural 6-sulfate isomer; binding of M. pneumoniae to glycolipid (in words) (M. pneumoniae [1]; listed as isomer of sulfatide in which the terminal sulfate is linked to the 6-position of): bound |
| Human Transferrin: protein |  |  | M. pneumoniae adhesion to immobilized glycoprotein (in words) (M. pneumoniae [3]): no binding of M. pneumoniae was detected; Relative binding activity (M. pneumoniae [3]): < 0.01 |
| Human platelet thrombospondin: adhesive glycoprotein |  |  | M. pneumoniae adhesion to immobilized glycoprotein (in words) (M. pneumoniae [3]): strongly promote adhesion; amount of glycoprotein coated that promotes adhesion (M. pneumoniae [3]): less than 10 ng; Relative binding activity (M. pneumoniae [3]): 0.7 |
| IV^3 -[3'SO3 GlcA]- nLcOse4Cer [SO4 -Glucuronosylparagloboside] | does not bind | - (no binding to 4 μg of lipid) |  |
| IV^3 GalnLcOse4Cer [α-Galactosylparagloboside] |  | + (2-4 μg) | binding of M. pneumoniae to glycolipid (in words) (M. pneumoniae [1]; listed as o-galactosylparagloboside): weakly |
| Lacto-N-triaosylceramide [Lacto- --N-triaosylcer] | weakly |  |  |
| Lactoisooctaosylceramide [I-active Lacto- isooctaosylcer] |  | - (no binding to 4 μg of lipid) |  |
| Lactosylceramide [Lactosylcer (CDH)] | weakly | ++ (0.5 to 2 μg) | binding of M. pneumoniae to glycolipid (in words) (M. pneumoniae [1]; listed as lactosylderamide): binds to high amounts; binding of M. pneumoniae to immobilized lipid (in words) (M. pneumoniae [2]): bound weakly |
| Lactosylceramide-II^3 -sulfate [Lactosylsulfatide] |  | +++ (positive binding to less than 0.5 μg) | binding of M. pneumoniae to glycolipid (in words) (M. pneumoniae [1]; listed as lactosyl sulfatide): bound; binding of M. pneumoniae to glycolipid (in words) (M. pneumoniae [1]; listed as lactosylsulfatide): bound strongly |
| Paragloboside | weakly | + (2-4 μg) | binding of M. pneumoniae to immobilized lipid (in words) (M. pneumoniae [2]): bound weakly |
| chondroitin sulfate |  |  | inhibition of binding to sulfatide at 100 μg/ml (in words) [4]: did not inhibit binding |
| colominic acid |  |  | inhibition of binding to sulfatide at 100 μg/ml (in words) [4]: did not inhibit binding |
| dextran |  |  | inhibition of binding to sulfatide (in words) ([4]; sulfatide adsorbed on plastic): no effect |
| fucoidin |  |  | inhibition of binding to sulfatide at 100 μg/ml (in words) [4]: did not inhibit binding |
| glucosylceramide [Glucosylcer (CMH)] | weakly | + (2-4 μg) |  |
| heparin |  |  | inhibition of binding to sulfatide at 100 μg/ml (in words) [4]: did not inhibit binding |
| hyaluronate |  |  | inhibition of binding to sulfatide at 100 μg/ml (in words) [4]: did not inhibit binding |
| sialyllactofucopentaosyl-(III)-ceramide [Sialylneolactofucopenta-osylcer] |  | - (no binding to 4 μg of lipid) |  |
| α2-3-sialyl-paragloboside (NeuAc) [Sialylparagloboside] | No binding was detected | - (no binding to 4 μg of lipid) |  |
| α2-3-sialyllactoneohexaosylceramide [Sialylneolacto-hexaoslycer] |  | - (no binding to 4 μg of lipid) |  |
| α-Ga121actoisooctaosylceramide [I-active Gal2 - lactoisooctaosylcer] |  | - (no binding to 4 μg of lipid) |  |
| β-galactosylalkylacylglycerol-I^3 -sulfate [Seminolipid] | bound strongly; also recorded: bound | +++ (positive binding to less than 0.5 μg) |  |
